The text below walks through data of publication PMC10149936, “Cofilin activation in pancreatic acinar cells plays a pivotal convergent role for mediating CCK-stimulated enzyme secretion and growth” (Frontiers in Physiology, 2023).

Experiment [1] relates to SSH1 (pS978) in pancreatic acini. The experiment in a line: SSH1 phosphorylation (pS978 SSH1 Western blot) in isolated rat pancreatic acini. Format: cell-based. As to conditions: for SSH1 dephosphorylation (activation) at short incubation: 0.5 min and 1.5 min, data not shown; for SSH1 phosphorylation (i.e., deactivation), maximum increment: 30 min. The procedure: Pancreatic acini preparations were obtained by collagenase digestion as previously described ([Bissonnette et al., 1984]; [Sato et al., 1989]; [Ramos-Alvarez and Jensen, 2018]). […] Isolated acini and CCK1-R/Panc-1 cells (M&M 2.2.1) were also preincubated with two SSH1 inhibitors, D3 (25 μM, 1 h) ([Li et al., 2015]) or SE (50 μM, 3 h for acini; 24 h for CCK1-R/Panc-1 cells) ([Lee et al., 2017]). […] Cells were lysed in lysis buffer (50 mM Tris/HCl pH 7.5, 150 mM NaCl, 1% Triton X-100, 1% deoxycholate, 0.1% sodium azide, 1 mM EGTA, 0.4 mM EDTA, 0.2 mM sodium orthovanadate, 1 mM PMSF, and one protease inhibitor tablet per 10 mL). After sonication, lysates were centrifuged at 10,000×g for 15 min at 4°C and protein concentration was measured using the Bio-Rad protein assay reagent. Finally, cells were processed as below for Western blotting.
Western blotting and immunoprecipitation were performed as described previously ([Ramos-Alvarez and Jensen, 2018]). Whole cell lysates were subjected to SDS-PAGE using 4%–20% Tris–Glycine gels. […] Finally, membranes were then washed again twice in blocking buffer for 4 min, twice in washing buffer for 4 min, incubated for 4 min with chemiluminescence detection reagents. The intensity of the protein bands was measured using GeneTools software from Syngene, which were assessed in the linear detection range.
FIGURE 2 Time course of phosphorylation of Lim kinase (LIMK) (A), cofilin (B) and Slingshot 1 phosphatase (SSH1) (C) induced by CCK-8 and TPA. Isolated pancreatic acini were incubated with either no addition (control), CCK-8 (0.3 and 100 nM) or TPA (1 µM) for the indicated periods of time and then lysed. Western blots were analyzed using anti-pT508 LIMK, anti-pS3 cofilin and anti-pS978 SSH1, which […] the activation states of LIMK, cofilin and SSH1. Bands were visualized using chemiluminescence and quantified by densitometry. Top: Results of a representative blot of three independent experiments are shown. Bottom: Means ± S.E. of at least 3 independent experiments. Results are expressed as % of basal stimulation of the control group. *, p < 0.05 compared to the control group.
On the technique in general: A western blot detects proteins with antibodies after separation by electrophoresis.

Experiment [2] relates to p44/42 MAPK in AR42J cells. The experiment in a line: p44/42 MAPK activation (pT202/Y204 Western blot) in AR42J cells. The format is cell-based. The following applies: Cytochalasin D 10 µM or Paclitaxel 5 µM, 4 h; A71378 30 nM 10 min. How it is done:
CCK1 receptor transfected Panc-1 (CCK1-R/Panc-1) cells ([Berna et al., 2009]) and AR42J cells, were cultured in DMEM supplemented with 10% FBS and 1% penicillin/streptomycin and in RPMI supplemented with 10% FBS and 1% penicillin/streptomycin, respectively; and split 1:10 weekly with trypsin/EDTA, after washing in PBS. Finally, cells were seeded in 6-well plate and serum starved overnight, until they were 80% confluent. Cells were incubated at 37°C in 5% CO2/95% air. AR42J cells were treated with 100 nM dexamethasone for 72°h, which stimulates their differentiation into exocrine cells ([Logsdon, 1986]).
Western blotting and immunoprecipitation were performed as described previously ([Ramos-Alvarez and Jensen, 2018]). Whole cell lysates were subjected to SDS-PAGE using 4%–20% Tris–Glycine gels. […] The intensity of the protein bands was measured using GeneTools software from Syngene, which were assessed in the linear detection range. […]
FIGURE 12 Effect of two cofilin inhibitors, Cytochalasin D or Paclitaxel (A, B), or cofilin siRNA (C), on the ability of A71378 (30 and 10 nM) to alter activation of cofilin (A) and p44/42 (B, C). […] Western blots were analyzed using anti-pS3 cofilin, anti-pT202/Y204 p44/42 and Tubulin. Bands were visualized using chemiluminescence and quantified by densitometry. […] Results are expressed as % of basal stimulation of the control group. […]

Regarding “COOH-terminal octapeptide of cholecystokinin [CCK-8]”, in experiment [1], the “SSH1 dephosphorylation (activation) at short incubation” value is on record as “no dephosphorylation of SSH1 (activation) was seen”. Moreover, the “SSH1 phosphorylation (i.e., deactivation), maximum increment” value in experiment [1] (CCK-8 100 nM) is listed as 162%.

For the molecule `C=C1[C@@H](C)[C@H]2[C@H](Cc3ccccc3)NC(=O)[C@]23[C@H](OC(C)=O)/C=C/[C@@](C)(O)C(=O)[C@@H](C)C/C=C/[C@H]3[C@@H]1O` [Cytochalasin D], the “decrease of A71378-mediated activation of p44/42” value in experiment [2] is 34%.

As for `CCCCCCCCCCCCCC(=O)O[C@@H]1[C@@H](C)[C@@]2(O)[C@@H](C=C(CO)C[C@]3(O)C(=O)C(C)=C[C@@H]23)[C@H]2C(C)(C)[C@]12OC(C)=O` [TPA, 12-O-tetradecanoylphobol-13-acetate], the “SSH1 dephosphorylation (activation) at short incubation” value in experiment [1] was “no dephosphorylation of SSH1 (activation) was seen”. In addition, the “SSH1 phosphorylation (i.e., deactivation), maximum increment” value in experiment [1] (TPA 1 µM) worked out at 151%.

As to `CC(=O)O[C@H]1C(=O)[C@@]2(C)[C@H]([C@H](OC(=O)c3ccccc3)[C@]3(O)C[C@H](OC(=O)[C@H](O)[C@@H](NC(=O)c4ccccc4)c4ccccc4)C(C)=C1C3(C)C)[C@]1(OC(C)=O)CO[C@@H]1C[C@@H]2O` [Paclitaxel], the “decrease of A71378-mediated activation of p44/42” value in experiment [2] is given as 36%.
